Among the data in paper PMC11768629, “Potential Interaction of Pinocembrin with Drug Transporters and Hepatic Drug-Metabolizing Enzymes” (Pharmaceuticals, 2025) are cell viability values, retold here.

The test system of one series is hOAT3-MDCK cells. Put plainly: Cell viability assay (MTT) in hOAT3-MDCK cells. Type of series: cell-based, canine. To be noted: tenofovir 5 µM, 48 h. The procedure:
(§1) The hOAT1-MDCK cells and hOAT3-MDCK cells were treated with 1, 10, and 50 μM pinocembrin for 24 h, followed by a measurement of ^3H-PAH and ^3H-estrone sulfate cellular accumulation. […] The inhibitory effect of pinocembrin occurred in a concentration-dependent manner.
(§2) We determined whether the inhibitory effect of pinocembrin on hOAT1 and hOAT3. We studied whether pinocembrin could reduce the renal toxicity of tenofovir, a substrate of hOAT1 and hOAT3 known for inducing renal tubular dysfunction.
(§3) The confluent cells in 96-well plates were treated with pinocembrin for 48 h at 37 °C. After that, the cells were incubated with 0.5 mg/mL MTT solution for four hours. The MTT solution was removed, and DMSO (100 µL) was added to dissolve the crystal formazan. The formazan content was detected at a wavelength of 570 nm using a microplate reader. Cell viability was reported as a percentage of the vehicle-treated cells.

In the next series the test system is hOAT1-MDCK cells. Put plainly: Cell viability assay (MTT) in hOAT1-MDCK cells. Type of series: cell-based, canine. To be noted: tenofovir 5 µM, 48 h. The procedure: as §1, §2, §3

Structures are written as SMILES.

On to `C[C@H](Cn1cnc2c(N)ncnc21)OCP(=O)(O)O` [tenofovir], for which the cell viability entry in the series with hOAT3-MDCK cells was “did not affect the viability”; with hOAT1-MDCK cells it was “significantly reduced the cell viability”.
